The source of these data is publication PMC7496920, “Structure‐Activity Relationship of Phenylpyrazolones against Trypanosoma cruzi” (Chemmedchem, 2020).

For series [1], the system named is intracellular amastigotes of T. cruzi (Tulahuen strain). As to the kind of experiment: Trypanosoma cruzi in vitro susceptibility assay on intracellular amastigotes (β‐galactosidase strain). It counts as cell-based. Conditions: for IC50: Trypanosoma cruzi, TULAHUEN, MRC-5 SV2, 168 h, intracellular amastigotes, Tulahuen CL2 β‐galactosidase strain in MRC‐5SV2 cells, 7 d, SD ±0.2, n>=2, read-out: pIC50 T. cruzi (converted); for SI (selectivity index): cytotoxicity (IC50, MRC‐5) divided by T. cruzi activity (IC50). The protocol: Trypanosoma cruzi in vitro assay: Bloodstream trypomastigotes (BT) of the Y strain of T. cruzi were obtained by cardiac puncture of infected Swiss Webster mice on the parasitaemia peak.12 For the standard in vitro susceptibility assay on intracellular amastigotes, T. cruzi Tulahuen CL2, β‐galactosidase strain (DTU VI, nifurtimox‐sensitive) was used. The strain is maintained on MRC‐5SV2 (human lung fibroblast) cells in MEM medium, supplemented with […] L‐glutamine, 16.5 mM NaHCO3, and 5 % heat inactivated fetal calf serum (FCSi). […] The color reaction was read at 540 nm after 4 h, and absorbance values were expressed as a percentage of the blank controls. All cultures and assays are conducted at 37 °C under 5 % CO2.13 Benznidazole was used as a reference compound.

The test system of series [2] is MRC‐5 cells. As to the kind of experiment: MRC‐5 cytotoxicity in vitro assay (resazurin). It counts as cell-based, human. Conditions: for IC50: Homo sapiens, MRC5, 72 h, MRC‐5‐SV2 cytotoxicity, 72 h, SD ±0.2, n>=2, read-out: pIC50 MRC‐5 (converted). The protocol: MRC‐5 cytotoxicity in vitro assay: MRC‐5‐SV2 cells, originally from a human diploid lung cell line, were cultivated in MEM, supplemented with L‐glutamine (20 mM), 16.5 mM sodium hydrogen carbonate and 5 % FCSi. For the assay, 10^4 cells/well were seeded onto the test plates containing the pre‐diluted sample and incubated at 37 °C and 5 % CO2 for 72 h. Cell viability was assessed fluorometrically 4 h after addition of resazurin (excitation 550 nm, emission 590 nm). The results are expressed as percentage reduction in cell viability compared to untreated controls. Tamoxifen was used as a reference compound.

Series [3] has as its system MRC‐5 cells. Set-up: method as in earlier work. To be noted: earlier hit optimization; cited from earlier work.
The test system of series [4] is intracellular amastigotes of T. cruzi (Tulahuen strain). On the set-up: method as in earlier work. To be noted: earlier hit optimization; cited from earlier work.

Bounds are passed on as bounds.

As for `COc1ccc(C2=NN(C(C)C)C(=O)C23CC=CC3)cc1-c1cccnc1` [compound 90], the IC50 in series [1] is 7.94 µM; in the series with MRC‐5 cells [2] it was 39.8 µM.

For the molecule `CC(C)N1N=C(c2cccc(-c3cccnc3)c2)C(C)(C)C1=O` [compound 61], the results for the IC50 (in series [1]; with MRC‐5 cells [2]) were 3.16 µM and 63.1 µM, respectively. Moreover, the “SI (selectivity index)” value in series [1] amounted to 20.

`COc1cc(C2=NN(C(C)C)C(=O)C2(C)C)cc(-c2cccnc2)c1` [compound 57]: in series [1], the IC50 was 7.94 µM and the “SI (selectivity index)” value is 4. Also, the IC50 in the series with MRC‐5 cells [2] is 31.6 µM.

Consider `COc1ccc(-c2nc(-c3ccccc3)cs2)cc1-c1cccnc1` [compound 142], for which the IC50 in series [1] is 2 µM; in the series with MRC‐5 cells [2], 2.51 µM. For the same molecule, the “SI (selectivity index)” value in series [1] is given as 1.

With `COc1ccc(-c2cc3n(n2)CCO3)cc1-c1cccnc1` [compound 95], the IC50 is 31.6 µM in series [1] and 50.1 µM in the series with MRC‐5 cells [2]. Also, the “SI (selectivity index)” value in series [1] is recorded as 2.

Turning to `CC(C)N1N=C(c2ccc(C#N)c(-c3cccnc3)c2)C(C)(C)C1=O` [compound 74], the results for the IC50 (in series [1]; with MRC‐5 cells [2]) were 50.1 µM and above 63.1 µM, respectively. The “SI (selectivity index)” value in series [1] is listed as above 1.

For `COc1ccc(-c2nc(C3CC3)cs2)cc1-c1cccnc1` [compound 141], in series [1], the IC50 is 2.51 µM and the “SI (selectivity index)” value is 3. The IC50 with MRC‐5 cells [2] was 7.94 µM.

On to `CC(C)N1N=C(c2cc3c(c(-c4cccnc4)c2)OCC3)C(C)(C)C1=O` [compound 59, 1‐Isopropyl‐4,4‐dimethyl‐3‐(7‐(pyridin‐3‐yl)‐2,3‐dihydrobenzofuran‐5‐yl)‐1H‐pyrazol‐5(4H)‐one], for which, in series [1], the IC50 was 1.58 µM and the “SI (selectivity index)” value worked out at 16. Also, the IC50 in the series on MRC‐5 cells [2] was 25.1 µM.

Take `COc1cc(C2=NN(C(C)C)C(=O)C2(C)C)cc(-c2cccnc2)c1OC` [compound 58]: the values for the IC50 (in series [1]; in the series on MRC‐5 cells [2]) were 50.1 µM and above 63.1 µM, respectively. Moreover, the “SI (selectivity index)” value in series [1] is above 1.

Regarding `COc1ccc(-c2nc(C(C)(C)C)co2)cc1-c1cccnc1` [compound 120, 4‐(tert‐Butyl)‐2‐(4‐methoxy‐3‐(pyridin‐3‐yl)phenyl)oxazole], the IC50 was 2 µM in series [1] and below 6.31 µM with MRC‐5 cells [2]. In series [1], the “SI (selectivity index)” value was 3.

Regarding `COc1c(C)cc(C2=NN(C(C)C)C(=O)C2(C)C)cc1-c1cccnc1` [compound 67], in series [1], the IC50 is 12.6 µM and the “SI (selectivity index)” value was above 5. For the same molecule, the IC50 with MRC‐5 cells [2] was above 63.1 µM.

`COc1ccc(C2=NN(C(C)C)C(=O)C23CCOCC3)cc1-c1cccnc1` [compound 92]: the IC50 (in series [1]; in the series on MRC‐5 cells [2]) was 31.6 µM throughout. For the same molecule, the “SI (selectivity index)” value in series [1] is 1.

Take `COc1ccc(-c2nc(-c3cccc(F)c3)co2)cc1-c1cccnc1` [compound 122]: in series [1], the IC50 is 1.26 µM.

Regarding `COc1ccc(-c2nc(-c3ccccc3)c(C)o2)cc1-c1cccnc1` [compound 124], in series [1], the IC50 is 2 µM and the “SI (selectivity index)” value is 3. Also, in the series on MRC‐5 cells [2], the IC50 is below 6.31 µM.

As to `COc1ccc(C2=NN(C(C)C)C(=O)C2(C)C)c(F)c1-c1cccnc1` [compound 65], the values for the IC50 (in series [1]; in the series on MRC‐5 cells [2]) were 2.51 µM and above 63.1 µM, respectively. In addition, the “SI (selectivity index)” value in series [1] is above 25.

For the molecule `Cc1ccc(C2=NN(C(C)C)C(=O)C2(C)C)cc1-c1cccnc1` [compound 64], the values for the IC50 (in series [1]; in the series with MRC‐5 cells [2]) were around 3.16 µM and above 63.1 µM, respectively. Further, the “SI (selectivity index)” value in series [1] was above 25.

For `COc1ccc(C2=NN(C(C)C)C(=O)C23CCN(C)CC3)cc1-c1cccnc1` [compound 91], in series [1], the IC50 is 31.6 µM and the “SI (selectivity index)” value turned out to be 2. Further, the IC50 in the series on MRC‐5 cells [2] was 50.1 µM.

`COc1ccc(-c2nnc(C3CCCC3)o2)cc1-c1cccnc1` [compound 133]: in series [1], the IC50 is 10 µM and the “SI (selectivity index)” value was above 6. Further, the IC50 in the series on MRC‐5 cells [2] is above 63.1 µM.

On to `COc1ccc(-c2nnc(-c3cccc(F)c3)o2)cc1-c1cccnc1` [compound 136], for which the IC50 is around 1.58 µM in series [1] and above 63.1 µM in the series on MRC‐5 cells [2]. In addition, the “SI (selectivity index)” value in series [1] is given as above 32.

`COc1cc(F)c(C2=NN(C(C)C)C(=O)C2(C)C)cc1-c1cccnc1` [compound 66]: the IC50 was 5.01 µM in series [1] and above 63.1 µM with MRC‐5 cells [2]. For the same molecule, the “SI (selectivity index)” value in series [1] was above 13.

In the case of `COc1ccc(C2=Nn3c(C4CC4)nnc3C2(C)C)cc1-c1cccnc1` [compound 109], in series [1], the IC50 is 15.8 µM and the “SI (selectivity index)” value is listed as above 4. The IC50 in the series on MRC‐5 cells [2] was above 63.1 µM.

On to `COc1ccc(-c2nnc(CC3CCOCC3)o2)cc1-c1cccnc1` [compound 134], for which, in series [1], the IC50 is 25.1 µM and the “SI (selectivity index)” value is above 3. Further, the IC50 in the series on MRC‐5 cells [2] was above 63.1 µM.

`CC(C)N1N=C(c2ccc(F)c(-c3cccnc3)c2)C(C)(C)C1=O` [compound 62]: the IC50 was around 3.16 µM in series [1] and above 63.1 µM with MRC‐5 cells [2]. For the same molecule, the “SI (selectivity index)” value in series [1] is above 10.

For `COc1ccc(C2=NN(C(C)C)C(=S)C2(C)C)cc1-c1cccnc1` [compound 99], the IC50 in series [1] is 0.501 µM; in the series on MRC‐5 cells [2], 15.8 µM. Further, in series [1], the “SI (selectivity index)” value amounted to 32.

Regarding `COc1ccc(-c2nc(-c3ccccc3)co2)cc1-c1cccnc1` [compound 121], in series [1], the IC50 was 1 µM and the “SI (selectivity index)” value was found to be 3. Moreover, the IC50 with MRC‐5 cells [2] was below 6.31 µM.

As to `COc1ccc(-c2nc(-c3ccc(F)cc3)co2)cc1-c1cccnc1` [compound 123], in series [1], the IC50 was 0.631 µM and the “SI (selectivity index)” value is above 100. In addition, the “MRC‐5 toxicity at 62 μM” value with MRC‐5 cells [2] (62 μM, limit concentration screened) is “no MRC‐5 toxicity”. Further, the IC50 in the series with MRC‐5 cells [2] is above 63.1 µM.

For `COc1ccc(-c2nnc(C(C)C)o2)cc1-c1cccnc1` [compound 132, 2‐Isopropyl‐5‐(4‐methoxy‐3‐(pyridin‐3‐yl)phenyl)‐1,3,4‐oxadiazole], the figures for the IC50 (in series [1]; in the series with MRC‐5 cells [2]) were 20 µM and above 63.1 µM, respectively. Besides, in series [1], the “SI (selectivity index)” value is listed as above 3.

For `COc1ccc(Cc2nnc(N)s2)cc1-c1cccnc1` [compound 98], the IC50 (in series [1]; in the series with MRC‐5 cells [2]) was above 63.1 µM in each case.

On to `COc1cc(C)c(C2=NN(C(C)C)C(=O)C2(C)C)cc1-c1cccnc1` [compound 68], for which, in series [1], the IC50 was 31.6 µM and the “SI (selectivity index)” value is on record as above 2. The IC50 in the series with MRC‐5 cells [2] is above 63.1 µM.

Take `COc1ccc(C2=NN(C(C)C)C(=O)CC2)cc1-c1cccnc1` [compound 104]: in series [1], the IC50 is 10 µM and the “SI (selectivity index)” value worked out at 3. For the same molecule, the IC50 with MRC‐5 cells [2] was 25.1 µM.

For `CC(C)N1N=C(c2ccc(Cl)c(-c3cccnc3)c2)C(C)(C)C1=O` [compound 63], in series [1], the IC50 is around 3.16 µM and the “SI (selectivity index)” value worked out at 5. For the same molecule, the IC50 with MRC‐5 cells [2] was 15.8 µM.

Consider `COc1c(Br)cc(C2=NN(C(C)C)C(=O)C2(C)C)cc1-c1cccnc1` [compound 60], for which, in series [1], the IC50 is 7.94 µM and the “SI (selectivity index)” value is listed as 3. In addition, in the series with MRC‐5 cells [2], the IC50 is 25.1 µM.

`COc1ccc(-c2nnc(-c3ccccc3)o2)cc1-c1cccnc1` [compound 135]: the IC50 in series [1] was around 1.58 µM; in the series on MRC‐5 cells [2], above 63.1 µM. For the same molecule, the “SI (selectivity index)” value in series [1] is listed as above 40.

With `COc1ccc(C2=NN(C(C)C)C(=O)C2(C)C)cc1-c1cccnc1` [compound 3, 2‐isopropyl‐5‐(4‐methoxy‐3‐(pyridin‐3‐yl)phenyl)‐4,4‐dimethyl‐2,4‐dihydro‐3H‐pyrazol‐3‐one], the IC50 in series [1] was 0.398 µM; in the series with MRC‐5 cells [2], 39.8 µM. In addition, the “SI (selectivity index)” value in series [1] came out at 100. For the same molecule, the “pIC50 MRC‐5” value in the series on MRC‐5 cells [3] is listed as 4.4. Further, the “pIC50 T. cruzi” value in series [4] is 6.4.

In the case of `COc1ccc(C2=NN(C(C)C)C(=O)C23CCCC3)cc1-c1cccnc1` [compound 89], the figures for the IC50 (in series [1]; in the series with MRC‐5 cells [2]) were 6.31 µM and 31.6 µM, respectively.
